# In patent publication US20260070929A1, “METHODS AND COMPOSITIONS FOR MODULATING KRAS(G12D)” (Ranok Therapeutics (Hangzhou) Co. LTD., priority 2022, published 2026):
# Like-named read-outs stand apart in the source and are kept apart here.
# Columns and labels:
# [1] = tested on: AGS gastric carcinoma cells [heterozygous G12D]; assay: Cancer cell line proliferation (CellTiter-Glo), AGS; type: cell-based; conditions: 72 hr treatment, read-out: AGS CTG (EC50)
# Method in brief: (§1)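 Cells at 4,000/well grown 72 hr, then treated with 3-fold serial dilutions (20 μM to 1.02 nM, 0.5% DMSO final) for 72 hr at 37° C/5% CO2. Viability by CellTiter-Glo luminescence; EC50 values calculated.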
# [2] = tested on: A-427 lung carcinoma cells [heterozygous G12D]; assay: Cancer cell line proliferation (CellTiter-Glo), A-427; type: cell-based; conditions: A-427 cells, 72 hr treatment, read-out: A427 CTG (EC50)
# Method in brief: as §1
# [3] = tested on: ASPC1 pancreatic adenocarcinoma cells [homozygous G12D]; assay: Cancer cell line proliferation (CellTiter-Glo), ASPC1; type: cell-based; conditions: 72 hr treatment, read-out: ASPC-1 CTG (EC50)
# Description: The following cancer cell lines were employed: AGS gastric carcinoma [heterozygous G12D](ATCC, CRL-1739); A-427 lung carcinoma [heterozygous G12D](ATCC, HTB-53); ASPC1 pancreatic adenocarcinoma [homozygous G12D](ATCC, CRL-1682) and SW1990 pancreatic adenocarcinoma [homozygous G12D](ATCC CRL-2172). Cell lines were cultured essentially according to ATCC recommendations.
# AGS, A-427, ASPC1, SW1990, and GP2D cells were plated in 96-well tissue culture plates at 4,000 cells/well and incubated at 37° C./5% CO2 for 72 hr in 100 μl of media. 3-fold serial dilutions of each test compound were prepared ranging from 20 μM to 1.02 nM. Each cell line was then treated with test compounds at various concentrations with a final concentration of 0.5% DMSO/well, and then incubated at 37° C./5% CO2 for 72 hr. 100 µl of CellTiter-Glo® Reagent (Promega Corporation, Madison, WI) was added to each well and processed according manufacturer's protocol. Results were analyzed and EC50 values were calculated in GraphPad 7 software.
# [4] = biological target: T1, KRAS(G12D)/SOS1 (Homo sapiens, UniProt P01116, G12D); assay: KRAS(G12D)/SOS1 homogeneous time-resolved fluorescence (HTRF) assay; type: binding; conditions: absence of GTP; 4° C., 3 hr
# T1 construct: purchased Cisbio 63ADK000CB17PEH
# T1 sequence (P01116 1-188 isoform P01116-2 G12D): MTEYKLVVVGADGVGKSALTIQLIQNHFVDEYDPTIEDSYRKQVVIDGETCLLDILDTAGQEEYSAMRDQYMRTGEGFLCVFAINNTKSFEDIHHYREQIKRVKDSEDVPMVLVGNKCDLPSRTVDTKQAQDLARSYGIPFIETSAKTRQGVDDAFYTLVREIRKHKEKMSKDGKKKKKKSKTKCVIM
# Method in brief: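 HTRF kit assay of compound-blocked KRAS(G12D)–SOS1 interaction, run without GTP. Compounds were tested as 3-fold dilutions from 20 µM to 1.02 nM and incubated with the reaction components for 3 hr at 4 °C, sealed. IC50 was taken as the concentration giving 50% of maximal inhibition.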
smiles,measurement,setting,value
CC(C)c1cc(-c2nnc(O)n2-c2ccc(CN(C)[C@@H]3CN4CCC[C@]4(COc4nc(N5CC6CCC(C5)N6)c5cnc(-c6cc(O)cc7ccccc67)c(F)c5n4)C3)cc2)c(O)cc1O [Compound 43],EC50,[1],> 1000 nM
same,EC50,[2],> 1000 nM
same,EC50,[3],> 1000 nM
same,IC50,[4],< 100 nM
CC(C)c1cc(C(=O)N2Cc3ccc(CN(C)[C@H]4CN5CCC[C@@]5(COc5nc(N6CC7CCC(C6)N7)c6cnc(-c7cc(O)cc8ccccc78)c(F)c6n5)C4)cc3C2)c(O)cc1O [Compound 44],EC50,[1]; Homo sapiens,100 to 1000 nM
same,EC50,[2]; Homo sapiens,100 to 1000 nM
same,EC50,"[3]; Homo sapiens, ASPC1, 72 h",> 1000 nM
same,IC50,[4],< 100 nM
CC(C)c1cc(C(=O)N2Cc3ccc(CN(C)[C@H]4CN5CCC[C@]5(COc5nc(N6CC7CCC(C6)N7)c6cnc(-c7cc(O)cc8ccccc78)c(F)c6n5)C4)cc3C2)c(O)cc1O [Compound 45],EC50,[1]; Homo sapiens,100 to 1000 nM
same,EC50,[2]; Homo sapiens,100 to 1000 nM
same,EC50,"[3]; Homo sapiens, ASPC1, 72 h",> 1000 nM
same,IC50,[4],100 to 1000 nM
CC(C)c1cc(C(=O)N2Cc3ccc(CN4CCC(C(=O)N(C)[C@H]5CN6CCC[C@@]6(COc6nc(N7CC8CCC(C7)N8)c7cnc(-c8cc(O)cc9ccccc89)c(F)c7n6)C5)CC4)cc3C2)c(O)cc1O [Compound 49],EC50,[1]; Homo sapiens,100 to 1000 nM
same,EC50,[2]; Homo sapiens,100 to 1000 nM
same,EC50,"[3]; Homo sapiens, ASPC1, 72 h",> 1000 nM
same,IC50,[4],< 100 nM
CC(C)c1cc(C(=O)N2Cc3ccc(CN4CCC(C(=O)N(C)[C@H]5CN6CCC[C@]6(COc6nc(N7CC8CCC(C7)N8)c7cnc(-c8cc(O)cc9ccccc89)c(F)c7n6)C5)CC4)cc3C2)c(O)cc1O [Compound 50],EC50,[1]; Homo sapiens,100 to 1000 nM
same,EC50,[2]; Homo sapiens,100 to 1000 nM
same,EC50,"[3]; Homo sapiens, ASPC1, 72 h",100 to 1000 nM
same,IC50,[4],< 100 nM
Cc1cccc(-c2ncc3c(N4CC5CCC(C4)N5)nc(OC[C@@H]4C[C@H](N5CCN(Cc6ccc(-n7c(O)nnc7-c7cc(C(C)C)c(O)cc7O)cc6)CC5)CN4C)nc3c2F)c1C [Compound 52],EC50,[1]; Homo sapiens,100 to 1000 nM
same,EC50,[2]; Homo sapiens,100 to 1000 nM
same,EC50,"[3]; Homo sapiens, ASPC1, 72 h",> 1000 nM
same,IC50,[4],> 1000 nM
CCNC(=O)c1nnc(-c2cc(C(C)C)c(O)cc2O)n1-c1ccc(CN2CCN([C@H]3C[C@@H](COc4nc(N5CC6CCC(C5)N6)c5cnc(-c6cccc(C)c6C)c(F)c5n4)N(C)C3)CC2)cc1 [Compound 53],EC50,[1]; Homo sapiens,< 100 nM
same,EC50,[2]; Homo sapiens,100 to 1000 nM
same,EC50,"[3]; Homo sapiens, ASPC1, 72 h",100 to 1000 nM
same,IC50,[4],< 100 nM
CCNC(=O)c1nnc(-c2cc(C(C)C)c(O)cc2O)n1-c1ccc(CN2CCN([C@H]3C[C@@H](COc4nc(N5CC6CCC(C5)N6)c5cnc(-c6cccc7cccc(C#N)c67)c(F)c5n4)N(C)C3)CC2)cc1 [Compound 59],EC50,[1]; Homo sapiens,< 100 nM
same,EC50,[2]; Homo sapiens,100 to 1000 nM
same,EC50,"[3]; Homo sapiens, ASPC1, 72 h",100 to 1000 nM
same,IC50,[4],> 1000 nM
CCNC(=O)c1nnc(-c2cc(C(C)C)c(O)cc2O)n1-c1ccc(CN2CCN([C@H]3C[C@@H](COc4nc(N5CC6CCC(C5)N6)c5cnc(-c6ccccc6C(F)(F)F)c(F)c5n4)N(C)C3)CC2)cc1 [Compound 60],EC50,[1]; Homo sapiens,< 100 nM
same,EC50,[2]; Homo sapiens,100 to 1000 nM
same,EC50,"[3]; Homo sapiens, ASPC1, 72 h",100 to 1000 nM
same,IC50,[4],> 1000 nM
Cc1c(F)cccc1-c1ncc2c(N3CC4CCC(C3)N4)nc(OC[C@@H]3C[C@H](N4CCN(Cc5ccc6c(c5)CN(C(=O)c5cc(C(C)C)c(O)cc5O)C6)CC4)CN3C)nc2c1F [Compound 61],EC50,[1]; Homo sapiens,100 to 1000 nM
same,EC50,[2]; Homo sapiens,100 to 1000 nM
same,EC50,"[3]; Homo sapiens, ASPC1, 72 h",100 to 1000 nM
same,IC50,[4],> 1000 nM
CCNC(=O)c1nnc(-c2cc(C(C)C)c(O)cc2O)n1-c1ccc(CN2CCN([C@H]3C[C@@H](COc4nc(N5CC6CCC(C5)N6)c5cnc(-c6cccc(F)c6C)c(F)c5n4)N(C)C3)CC2)cc1 [Compound 62],EC50,[1]; Homo sapiens,< 100 nM
same,EC50,[2]; Homo sapiens,< 100 nM
same,EC50,"[3]; Homo sapiens, ASPC1, 72 h",100 to 1000 nM
same,IC50,[4],> 1000 nM
CC(C)c1cc(C(=O)N2Cc3ccc(CN4CCN([C@H]5C[C@@H](COc6nc(N7CC8CCC(C7)N8)c7cnc(-c8cccc9cccc(C#N)c89)c(F)c7n6)N(C)C5)CC4)cc3C2)c(O)cc1O [Compound 63],EC50,[1]; Homo sapiens,100 to 1000 nM
same,EC50,[2]; Homo sapiens,< 100 nM
same,EC50,"[3]; Homo sapiens, ASPC1, 72 h",100 to 1000 nM
same,IC50,[4],100 to 1000 nM
CC(C)c1cc(C(=O)N2Cc3ccc(CN4CCN(C[C@H]5CC[C@@H](COc6nc(N7CC8CCC(C7)N8)c7cnc(-c8cc(O)cc9ccccc89)c(F)c7n6)N5C)CC4)cc3C2)c(O)cc1O [Compound 64],EC50,[1]; Homo sapiens,100 to 1000 nM
same,EC50,[2]; Homo sapiens,100 to 1000 nM
same,EC50,"[3]; Homo sapiens, ASPC1, 72 h",100 to 1000 nM
same,IC50,[4],< 100 nM
CCNC(=O)c1nnc(-c2cc(C(C)C)c(O)cc2O)n1-c1ccc(CN2CCN(C[C@H]3CC[C@@H](COc4nc(N5CC6CCC(C5)N6)c5cnc(-c6cc(O)cc7ccccc67)c(F)c5n4)N3C)CC2)cc1 [Compound 65],EC50,[1]; Homo sapiens,< 100 nM
same,EC50,[2]; Homo sapiens,< 100 nM
same,EC50,"[3]; Homo sapiens, ASPC1, 72 h",100 to 1000 nM
same,IC50,[4],< 100 nM
CCNC(=O)c1nnc(-c2cc(C(C)C)c(O)cc2O)n1-c1ccc(CN2CCN(C[C@H]3CC[C@@H](COc4nc(N5CC6CCC(C5)N6)c5cnc(-c6cccc7ccccc67)c(F)c5n4)N3C)CC2)cc1 [Compound 66],EC50,[1]; Homo sapiens,< 100 nM
same,EC50,[2]; Homo sapiens,< 100 nM
same,EC50,"[3]; Homo sapiens, ASPC1, 72 h",100 to 1000 nM
same,IC50,[4],100 to 1000 nM
Cc1cccc2cccc(-c3ncc4c(N5CC6CCC(C5)N6)nc(OC[C@@H]5C[C@H](N6CCN(Cc7ccc8c(c7)CN(C(=O)c7cc(C(C)C)c(O)cc7O)C8)CC6)CN5C)nc4c3F)c12 [Compound 68],EC50,[1],100 to 1000 nM
same,EC50,[2],100 to 1000 nM
same,EC50,[3],> 1000 nM
same,IC50,[4],> 1000 nM
CCNC(=O)c1nnc(-c2cc(C(C)C)c(O)cc2O)n1-c1ccc(CN2CCN([C@H]3C[C@@H](COc4nc(N5CC6CNC(C6)C5)c5cnc(-c6cccc7cccc(C)c67)c(F)c5n4)N(C)C3)CC2)cc1 (some centres unmarked) [Compound 69],EC50,[1]; Homo sapiens,100 to 1000 nM
same,EC50,[2]; Homo sapiens,100 to 1000 nM
same,EC50,"[3]; Homo sapiens, ASPC1, 72 h",> 1000 nM
same,IC50,[4],> 1000 nM
CC(C)c1cc(C(=O)N2Cc3ccc(CN4CCC(C(=O)N5CCN(C[C@H]6CC[C@@H](COc7nc(N8CC9CCC(C8)N9)c8cnc(-c9cc(O)cc%10ccccc9%10)c(F)c8n7)N6C)CC5)CC4)cc3C2)c(O)cc1O [Compound 70],EC50,[1]; Homo sapiens,100 to 1000 nM
same,EC50,[2]; Homo sapiens,100 to 1000 nM
same,EC50,"[3]; Homo sapiens, ASPC1, 72 h",> 1000 nM
same,IC50,[4],< 100 nM
C#Cc1cccc2cc(O)cc(-c3ncc4c(N5CC6CCC(C5)N6)nc(OCC5(CN6CCN(CC7CCN(c8ccc9c(c8)CN(C(=O)c8cc(C(C)C)c(O)cc8O)C9)CC7)CC6)CC5)nc4c3F)c12 [Compound 133],EC50,[1]; Homo sapiens,100 to 1000 nM
same,EC50,[2]; Homo sapiens,100 to 1000 nM
same,EC50,"[3]; Homo sapiens, ASPC1, 72 h",100 to 1000 nM
same,IC50,[4],< 100 nM
C#Cc1cccc2cc(O)cc(-c3ncc4c(N5CC6CNC(C6)C5)nc(OCC5(CN6CCN(CC7CCN(Cc8ccc(-n9c(C(=O)NC(C)C(F)(F)F)nnc9-c9cc(C(C)C)c(O)cc9O)cc8)CC7)CC6)CC5)nc4c3F)c12 (centres unmarked) [Compound 134],EC50,[1]; Homo sapiens,100 to 1000 nM
same,EC50,[2]; Homo sapiens,100 to 1000 nM
same,EC50,"[3]; Homo sapiens, ASPC1, 72 h",100 to 1000 nM
same,IC50,[4],< 100 nM
C#Cc1cccc2cc(O)cc(-c3ncc4c(N5CC6CNC(C6)C5)nc(OCC5(CN6CCN(CC7CCN(Cc8ccc(-n9c(C(=O)NCC(F)(F)F)nnc9-c9cc(C(C)C)c(O)cc9O)cc8)CC7)CC6)CC5)nc4c3F)c12 (centres unmarked) [Compound 135],EC50,[1]; Homo sapiens,100 to 1000 nM
same,EC50,[2]; Homo sapiens,100 to 1000 nM
same,EC50,"[3]; Homo sapiens, ASPC1, 72 h",100 to 1000 nM
same,IC50,[4],< 100 nM
C#Cc1cccc2cc(O)cc(-c3ncc4c(N5CC6CNC(C6)C5)nc(OCC5(CN6CCN(CC7CCN(C(=O)C8CCN(Cc9ccc%10c(c9)CN(C(=O)c9cc(C(C)C)c(O)cc9O)C%10)CC8)CC7)CC6)CC5)nc4c3F)c12 (centres unmarked) [Compound 136],EC50,[1]; Homo sapiens,100 to 1000 nM
same,EC50,[2]; Homo sapiens,100 to 1000 nM
same,EC50,"[3]; Homo sapiens, ASPC1, 72 h",> 1000 nM
same,IC50,[4],100 to 1000 nM
CC(C)c1cc(-c2nnc(C(=O)NC(C)C(F)(F)F)n2-c2ccc(CN3CCC(CN4CCN(CC5(COc6nc(N7CC8CCC(C7)N8)c7cnc(-c8cccc9ccccc89)c(F)c7n6)CC5)CC4)CC3)cc2)c(O)cc1O (centres unmarked) [Compound 137],EC50,[1]; Homo sapiens,100 to 1000 nM
same,EC50,[2]; Homo sapiens,100 to 1000 nM
same,EC50,"[3]; Homo sapiens, ASPC1, 72 h",100 to 1000 nM
same,IC50,[4],100 to 1000 nM
